Measurements as given in ChEMBL document CHEMBL1157351, “Total synthesis and evaluation of C25-benzyloxyepothilone C for tubulin assembly and cytotoxicity against MCF-7 breast cancer cells” (Bioorg Med Chem Lett, 2008).
Calls of active or inactive are those of the source. The calls are words filed in the database; no cut-off is given here.

Tests used:
[1] = test system: MCF7; assay: Ratio of ED50 for drug to ED50 for epothilone B against human MCF7 cells; type: functional
[2] = Inhibition of microtubule assembly
[3] = test system: MCF7; assay: Cytotoxicity against human MCF7 cells; type: functional
[4] = Inhibition of microtubule assembly at 100 uM

EC50 [2]: 2500 nM
Activity [4]: inactive
Compound: C/C(=C\c1csc(C)n1)[C@@H]1C/C=C\CCC[C@H](COCc2ccccc2)C(O)[C@@H](C)C(=O)C(C)(C)C(O)CC(=O)O1 (some centres undefined)
Ratio ED50 [1]: 1050
Activity [3]: 2.1 µM
